Reference: EPA's ToxValDB 9.5 (doi:10.2903/j.efsa.2010.1892)
≈ marks a conversion by molar mass, not a printed value.

Experiments:
Adalia sp. = test: LR50; higher = less toxic; settings: not reported; mortality
Typhlodromus pyri = test: LR50; higher = less toxic; settings: not reported; mortality
Bibionidae = settings: chronic/long-term; duration: 28 days
Anas platyrhynchos = settings: acute; oral; unspecified; mortality
Apis mellifera = settings: acute; duration: 48 hours; dermal; mortality
Daphnia magna = settings: chronic/long-term; duration: 21 days; behavior
Tagia sp. = settings: acute; duration: 14 days; mortality
Perca sp. = settings: acute; duration: 96 hours; mortality
Oncorhynchus mykiss = settings: chronic/long-term; duration: 63 days
Canidae = settings: chronic; duration: 1 years; oral; Dog Other; food consumption
Folsomia candida = settings: acute; duration: 14 days; mortality
[1] = reproduction developmental, reproduction

CC(C)(C)c1ccc(CCOc2ncnc3ccccc23)cc1 [Fenazaquin]
LR50 (Adalia sp.): < 21.9 g/ha
LR50 (Typhlodromus pyri): < 2 g/ha
NOEC (Bibionidae): 0.0188 mg/kg
LD50 (Anas platyrhynchos): > 2000 mg/kg
LD50 (Apis mellifera): 1.21 µg/piece
NOEC (Daphnia magna): 0.0014 mg/L
LC50 (Tagia sp.): 26.5 mg/kg
LC50 (Perca sp.): 3.2 ng/mL (≈ 0.0104 µM)
NOEC (Oncorhynchus mykiss): 0.00096 mg/L
NOAEL (Canidae): 5 mg/kg-day
LC50 (Colinus virginianus; acute, oral, diet, mortality): > 1170 mg/kg-day
LD50 (Colinus virginianus; acute, oral, mortality): 1750 mg/kg
NOEC (Colinus virginianus; [1]): 80.3 mg/kg-day
LC50 (Folsomia candida): > 1000 mg/kg
LD50 (Rattus norvegicus; acute, oral, M, mortality): 134 mg/kg
NOAEL (Rattus norvegicus; chronic, duration: 2 years, oral, histopathology: nonneoplastic): 0.46 mg/kg-day
NOAEL (Rattus norvegicus; reproduction developmental, food consumption): 10 mg/kg-day
NOEL (Rattus norvegicus; [1]): 25 mg/kg-day
